# Source: patent publication US12714696B2, “Low dose fluralaner compositions for protection against parasitic invertebrate pest” (VIRBAC, priority 2019, dated 2026)
# Like-named read-outs stand apart in the source and are kept apart here.
# Key:
# [1] = system: C. felis fleas; experiment: Efficacy against fleas on dogs, oral 250/35/600 μg/kg study; assay type: in vivo; details: Day 3, following 3 consecutive doses of 250 μg/kg per day
# Experimental: The second objective is to investigate the pharmacodynamics between the fluralaner plasmatic dose and the effectiveness against ticks. • IVP: Investigational Veterinary Product, is pure Fluralaner+DMSO (250 μg/kg on Days 0 to 3 (0.25 mL/kg), then 35 μg/kg on Days 4 to 9 (0.35 mL/kg), then 600 μg/kg on Day 11) • Control product is DMSO (0.25 mL/kg on Days 0 to 3, then 0.35 mL/kg on Days 4 to 9)
# Dogs were infested with approximately 50 (±4) viable, adult, unfed R. sanguineus ticks on Days 1, 3, 5, 8, 10, 12, 16, 22, 26 and 30 to assess efficacy. Ticks will be removed and counted on Days 3, 5, 7 (48 hours±2 hours after infestation) and 9, 11, 13, 17, 24, 27, 32 (24 hours±2 hours after infestation). […] Fleas will be removed and counted on Days −5 (+1 day) and 3 (24 hours±2 hours after infestation).
# (§1) The efficacy against ticks and fleas were calculated for the study groups at each assessment day according to the formulas given below.
# (§2) Efficacy was calculated as follows: Efficacy (%)=100×(Mc−Mt)/Mc, where: • Mc=Mean number of live ticks (categories 1 to 2) or live fleas on dogs in the negative control group (group 1) at a specific time point. • Mt=Mean number of live ticks (categories 1 to 2) or live fleas on dogs in the IVP group (group 2) • at a specific time point.
# [2] = Comparison of plasma concentration simulated from experimental data with literature data; set-up: species or system dogs; details: simulation from experimental data (Table 6)
# [3] = system: C. felis fleas; experiment: Efficacy against fleas on dogs, oral 35 μg/kg study; assay type: in vivo
# Experimental: (§3) The second objective was to investigate the pharmacodynamics between the fluralaner plasmatic dose and the effectiveness against fleas. • IVP: Investigational Veterinary Product, is pure Fluralaner+DMSO (35 μg/kg on Days 0 to 3 (0.35 mL/kg)) • Control product is DMSO (0.35 mL/kg on Days 0 to 3)
# (§4) On Days 0, 1, 2 and 3, all dogs assigned to group 2 received the Investigational Veterinary Product. On Days 0 to 3 all dogs in group 1 received the control product at a volume equal to the dogs in group 2. Dogs assigned to group 1 received the control product and served as Placebo controls. The quantity of Investigational Veterinary Product and control product administered was calculated according to the dog's individual body weight measured on Day −1.
# (§5) Dogs were infested with approximately 100 (±8) viable, adult, C. felis fleas on Day −6 for randomisation purposes and on Days 1, 2 and 3 to assess efficacy. Fleas were removed and counted on Days −5, 2, 3 and 4 (24 hours±2 hours after infestation). Dogs were also infested with approximately 50 (±4) viable, adult, unfed R. sanguineus ticks on Day 4 to assess acaricidal efficacy. Ticks will be removed and counted on Day 5 (24 hours±2 hours after infestation).
# as §1, §2
# [4] = Adverse event observation, oral study against fleas; assay type: in vivo, beagle dogs; details: oral 35 μg/kg Days 0-3, dogs
# Experimental: Dogs were observed hourly±15 minutes for four hours after administration on Day 0 and once daily two hours±15 minutes after Investigational Veterinary Product or control product administration on Days 1, 2 and 3. Observations were conducted for each individual dog.
# [5] = cited from earlier work
# [6] = system: R. sanguineus ticks; experiment: Acaricidal efficacy on dogs, oral 35 μg/kg study; assay type: in vivo; details: 48 h after the last of four doses of 35 μg/kg per day
# Experimental: as §3, §4, §5
# The efficacy against ticks and fleas were calculated for the study groups at each assessment day according to the formulas given below. […]
# [7] = Intravenous 12.5 mg/kg, single, dogs, n = 6, mean ± standard deviation
# [8] = Oral 12.5 mg/kg, single, dogs, n = 6, mean ± standard deviation
# [9] = Oral 25.0 mg/kg, single, dogs, n = 6, mean ± standard deviation
# [10] = Oral 50.0 mg/kg, single, dogs, n = 6, mean ± standard deviation
# [11] = literature data (Table 6; equals Oral 50.0 mg/kg of Table 5)
structure (smiles),measurement,setting,value
"Cc1cc(C2=NOC(c3cc(Cl)cc(Cl)c3)(C(F)(F)F)C2)ccc1C(=O)NCC(=O)NCC(F)(F)F (stereo not shown) [fluralaner, Fluralaner]",efficacy against fleas,[1],92%
same,AUCextra,[2],68221.98 µg·days/L
same,AUClast,[2],483104.77 µg·days/L
same,AUCtot,[2],551326.76 µg·days/L
same,t1/2,[2],9.56 days
same,tmax,[2],3 days
same,Cmax,[2]; compared with literature oral 50.0 mg/kg values,31994.2 ng/mL
same,efficacy against fleas,"[3]; 24 h after the first three doses of 35 μg/kg per day, dogs",100%
same,efficacy against fleas,"[3]; 24 h after the first two doses of 35 μg/kg per day, dogs",99.6%
same,efficacy against fleas,"[3]; after the fourth and final dose of 35 μg/kg per day, dogs",99.8%
same,efficacy against fleas from 24 hours after administration,"[3]; infestation at D1, first measurement at D2, whatever the dose",high efficacy
same,efficacy against fleas,"[3]; period Day 2 to Day 4, 24 hours after infestation, oral 35 μg/kg Days 0-3, dogs",100%
same,Adverse Events as a result of the product,[4],No Adverse Events
same,AUC(0-d112),[5]; [7],87198 ± 11835 ng·days/mL
same,AUC(0→∞),[5]; [7],87779 ± 12004 ng·days/mL
same,Cl,[5]; [7],5.83 ± 0.83 mL/h/kg
same,Cmax,[5]; [7],7109 ± 908 ng/mL
same,MRT,[5]; [7],20 ± 3 days
same,Vz,[5]; [7],3.1 ± 0.5 L/kg
same,t1/2,[5]; [7],15 ± 2 days
same,tmax,"[5]; Oral 12.5 mg/kg, single, dogs, n = 6, Median",1 (range 0.08-2) day
same,AUC(0-d112),[5]; [8],29665 ± 13858 ng·days/mL
same,AUC(0→∞),[5]; [8],29922 ± 13808 ng·days/mL
same,Cmax,[5]; [8],2144 ± 860 ng/mL
same,MRT,[5]; [8],19 ± 2 days
same,t1/2,[5]; [8],13 ± 1 days
same,tmax,"[5]; Oral 25.0 mg/kg, single, dogs, n = 6, Median",1 (range 1-2) day
same,AUC(0-d112),[5]; [9],46115 ± 18932 ng·days/mL
same,AUC(0→∞),[5]; [9],46416 ± 18929 ng·days/mL
same,Cmax,[5]; [9],3948 ± 1734 ng/mL
same,MRT,[5]; [9],15 ± 4 days
same,t1/2,[5]; [9],12 ± 3 days
same,tmax,"[5]; Oral 50.0 mg/kg, single, dogs, n = 6, Median",1 (range 0.17-3) day
same,AUC(0-d112),[5]; [10],70171 ± 26412 ng·days/mL
same,AUC(0→∞),[5]; [10],70531 ± 26529 ng·days/mL
same,Cmax,[5]; [10],5419 ± 2086 ng/mL
same,MRT,[5]; [10],17 ± 3 days
same,t1/2,[5]; [10],14 ± 1 days
same,AUCtot,[5]; [11],70531 µg·days/L
same,Cmax,[5]; [11],5419 ng/mL
same,t1/2,[5]; [11],14 days
same,tmax,[5]; [11],1 days
same,efficacy against ticks,[6],40.4%
